Experiment [1] deals with HIS-TGF-βR2 WT (Homo sapiens (Human), UniProt P37173). Description: HTRF probe displacement assay with HIS-TGF-βR2 WT. To be noted: read-out: TGFBr2 IC50; HTRF probe displacement, 1 nM HIS-TGF-βR2 WT, 1 hour at room temperature.
Experiment [2] addresses HIS-TGF-βR1 T204D (Homo sapiens (Human), UniProt P36897, T204D). Description: HTRF probe displacement assay with HIS-TGF-βR1 T204D. The following applies: read-out: TGFbr1 IC50; HTRF probe displacement, 1 nM HIS-TGF-βR1 T204D, 1 hour at room temperature. For orientation: Time-resolved FRET reads energy transfer from a long-lived donor to a nearby acceptor.

For orientation: IC50 means the midpoint of a concentration-inhibition curve.

HIS-TGF-βR2 WT, sequence (P37173 23-567): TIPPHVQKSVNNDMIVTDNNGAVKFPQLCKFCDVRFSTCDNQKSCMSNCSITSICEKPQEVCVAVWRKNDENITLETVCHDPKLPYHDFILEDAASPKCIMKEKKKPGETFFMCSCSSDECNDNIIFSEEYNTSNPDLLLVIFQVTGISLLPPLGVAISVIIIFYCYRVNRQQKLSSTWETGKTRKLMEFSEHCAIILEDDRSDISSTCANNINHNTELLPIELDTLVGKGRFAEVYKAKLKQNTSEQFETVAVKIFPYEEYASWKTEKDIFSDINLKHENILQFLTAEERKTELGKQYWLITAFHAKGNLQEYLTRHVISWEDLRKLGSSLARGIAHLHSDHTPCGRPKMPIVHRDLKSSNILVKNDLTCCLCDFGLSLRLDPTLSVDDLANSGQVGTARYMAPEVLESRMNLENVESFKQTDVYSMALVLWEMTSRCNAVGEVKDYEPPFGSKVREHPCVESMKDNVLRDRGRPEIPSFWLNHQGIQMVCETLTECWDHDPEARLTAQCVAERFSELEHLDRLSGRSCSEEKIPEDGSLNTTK
HIS-TGF-βR1 T204D, sequence (P36897 34-503 T204D): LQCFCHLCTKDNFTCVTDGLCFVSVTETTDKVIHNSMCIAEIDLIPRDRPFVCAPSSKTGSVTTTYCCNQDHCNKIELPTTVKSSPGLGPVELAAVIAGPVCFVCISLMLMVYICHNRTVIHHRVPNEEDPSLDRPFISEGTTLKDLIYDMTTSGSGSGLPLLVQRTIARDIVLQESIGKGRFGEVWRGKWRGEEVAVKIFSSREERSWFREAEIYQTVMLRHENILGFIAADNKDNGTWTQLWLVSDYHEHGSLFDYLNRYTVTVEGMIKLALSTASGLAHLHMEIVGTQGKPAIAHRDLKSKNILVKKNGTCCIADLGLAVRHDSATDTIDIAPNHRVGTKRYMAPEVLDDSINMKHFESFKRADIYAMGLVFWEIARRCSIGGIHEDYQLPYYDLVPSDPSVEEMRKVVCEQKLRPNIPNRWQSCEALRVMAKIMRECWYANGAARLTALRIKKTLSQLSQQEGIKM

In the case of `CC(C)(O)CCn1cnc(-c2ccc(F)cc2)c1-c1ccc2ncc(C(N)=O)n2n1` [131′, 6-(4-(4-fluorophenyl)-1-(3-hydroxy-3-methylbutyl)-1H-imidazol-5-yl)imidazo[1,2-b]pyridazine-3-carboxamide], the values for the IC50 in experiment [1] and in experiment [2] were above 15 µM and 0.0281 µM, respectively.
The like results for `CC(C)(O)CCn1cnc(-c2ccc(F)c(Cl)c2)c1-c1ccc2ncc(C(N)=O)n2n1` [139′, 6-(4-(3-chloro-4-fluorophenyl)-1-(3-hydroxy-3-methylbutyl)-1H-imidazol-5-yl)imidazo[1,2-b]pyridazine-3-carboxamide] were, in that order, above 15 µM and 0.0052 µM.
As to `NC(=O)c1cnc2ccc(-c3c(-c4ccc(F)c(Cl)c4)ncn3CCN3CCCC3)nn12` [143′, 6-(4-(3-chloro-4-fluorophenyl)-1-(2-(pyrrolidin-1-yl)ethyl)-1H-imidazol-5-yl)imidazo[1,2-b]pyridazine-3-carboxamide], the IC50 in experiment [1] was above 15 µM; in experiment [2] it was 0.0091 µM.
The corresponding values for `NC(=O)c1cnc2ccc(-c3c(-c4ccc(F)c(Cl)c4)ncn3C3CCOCC3)nn12` [144′, 6-(4-(3-chloro-4-fluorophenyl)-1-(tetrahydro-2H-pyran-4-yl)-1H-imidazol-5-yl)imidazo[1,2-b]pyridazine-3-carboxamide] are above 15 µM and 0.0041 µM.
In the case of `CN(C)CCCn1cnc(-c2ccc(F)cc2)c1-c1ccc2ncc(C(N)=O)n2c1` [163′, 6-(1-(3-(dimethylamino)propyl)-4-(4-fluorophenyl)-1H-imidazol-5-yl)imidazo[1,2-a]pyridine-3-carboxamide], the figures for the IC50 in experiment [1] and in experiment [2] were above 15 µM and 0.0319 µM, respectively.
The like results for `NC(=O)c1cnc2ccc(-c3c(-c4ccc(F)cc4)ncn3CC(O)C(F)(F)F)cn12` (stereo not drawn) [169′, 6-(4-(4-fluorophenyl)-1-(3,3,3-trifluoro-2-hydroxypropyl)-1H-imidazol-5-yl)imidazo[1,2-a]pyridine-3-carboxamide] were, in that order, above 15 µM and 0.0213 µM.
The like results for `NC(=O)c1cnc2ccc(-c3c(-c4ccc(F)cc4)ncn3C3CC(F)(F)C3)cn12` [180′, 6-(1-(3,3-difluorocyclobutyl)-4-(4-fluorophenyl)-1H-imidazol-5-yl)imidazo[1,2-a]pyridine-3-carboxamide] were, in that order, above 15 µM and 0.0037 µM.
The like results for `CC(C)(C)OC(=O)N1CC(n2cnc(-c3ccc(F)cc3)c2-c2ccc3ncc(C(N)=O)n3n2)C1` [195A′, tert-butyl 3-(5-(3-carbamoylimidazo[1,2-b]pyridazin-6-yl)-4-(4-fluorophenyl)-1H-imidazol-1-yl)azetidine-1-carboxylate] were, in that order, above 15 µM and 0.244 µM.
With `CN(C)C(=O)c1cnc2ccc(-c3c(-c4ccc(F)cc4)ncn3CC(F)F)nn12` [207′, 6-(1-(2,2-difluoroethyl)-4-(4-fluorophenyl)-1H-imidazol-5-yl)-N,N-dimethylimidazo[1,2-b]pyridazine-3-carboxamide], the IC50 is above 15 µM in experiment [1] and 0.003 µM in experiment [2].
The like results for `O=C(NC1CC1)c1cnc2ccc(-c3c(-c4ccc(F)cc4)ncn3CC(F)F)nn12` [208′, N-cyclopropyl-6-(1-(2,2-difluoroethyl)-4-(4-fluorophenyl)-1H-imidazol-5-yl)imidazo[1,2-b]pyridazine-3-carboxamide] were, in that order, above 15 µM and 0.0012 µM.
With `NC(=O)c1cnc2ccc(-c3c(-c4cc(Cl)c(F)cc4F)ncn3CC(F)F)cn12` [235′, 6-(4-(5-chloro-2,4-difluorophenyl)-1-(2,2-difluoroethyl)-1H-imidazol-5-yl)imidazo[1,2-a]pyridine-3-carboxamide], the IC50 is above 15 µM in experiment [1] and 0.001 µM in experiment [2].
The like results for `CS(=O)(=O)Nc1ccccc1-c1ncn(CC(F)F)c1-c1ccc2ncc(C#N)n2n1` [239′, N-(2-(5-(3-cyanoimidazo[1,2-b]pyridazin-6-yl)-1-(2,2-difluoroethyl)-1H-imidazol-4-yl)phenyl)methanesulfonamide] were, in that order, above 15 µM and 0.521 µM.
The corresponding values for `N#Cc1cnc2ccc(-c3c(-c4cccc(C(F)(F)F)c4)ncn3CC(F)F)nn12` [243′, 6-(1-(2,2-difluoroethyl)-4-(3-(trifluoromethyl)phenyl)-1H-imidazol-5-yl)imidazo[1,2-b]pyridazine-3-carbonitrile] are above 15 µM and 0.0018 µM.
The like results for `N#Cc1cnc2ccc(-c3c(-c4ccc(C(F)(F)F)cc4)ncn3CC(F)F)nn12` [244′, 6-(1-(2,2-difluoroethyl)-4-(4-(trifluoromethyl)phenyl)-1H-imidazol-5-yl)imidazo[1,2-b]pyridazine-3-carbonitrile] were, in that order, above 15 µM and 0.546 µM.
For the compound `CC(=O)Nc1cccc(-c2ncn(CC(F)F)c2-c2ccc3ncc(C#N)n3n2)c1` [245′, N-(3-(5-(3-cyanoimidazo[1,2-b]pyridazin-6-yl)-1-(2,2-difluoroethyl)-1H-imidazol-4-yl)phenyl)acetamide], the results for the IC50 in experiment [1] and in experiment [2] were above 15 µM and 0.0491 µM, respectively.
The like results for `N#Cc1cnc2ccc(-c3c(-c4ccccc4C(F)(F)F)ncn3CC(F)F)nn12` [246′, 6-(1-(2,2-difluoroethyl)-4-(2-(trifluoromethyl)phenyl)-1H-imidazol-5-yl)imidazo[1,2-b]pyridazine-3-carbonitrile] were, in that order, above 15 µM and 0.144 µM.
With `CS(=O)(=O)Nc1cccc(-c2ncn(CC(F)F)c2-c2ccc3ncc(C#N)n3n2)c1` [252′, N-(3-(5-(3-cyanoimidazo[1,2-b]pyridazin-6-yl)-1-(2,2-difluoroethyl)-1H-imidazol-4-yl)phenyl)methanesulfonamide], the 50% inhibitory concentration (IC50) in experiment [1] is above 15 µM; in experiment [2], 0.0077 µM.
`CS(=O)(=O)c1cccc(-c2ncn(CC(F)F)c2-c2ccc3ncc(C#N)n3n2)c1` [254′, 6-(1-(2,2-difluoroethyl)-4-(3-(methylsulfonyl)phenyl)-1H-imidazol-5-yl)imidazo[1,2-b]pyridazine-3-carbonitrile]: the IC50 in experiment [1] is above 15 µM; in experiment [2] it was 0.752 µM.
The like results for `N#Cc1cnc2ccc(-c3c(-c4cccc(OC(F)(F)F)c4)ncn3CC(F)F)nn12` [259′, 6-(1-(2,2-difluoroethyl)-4-(3-(trifluoromethoxy)phenyl)-1H-imidazol-5-yl)imidazo[1,2-b]pyridazine-3-carbonitrile] were, in that order, above 15 µM and 0.001 µM.
As to `N#Cc1cnc2ccc(-c3c(-c4ccc(F)c(C(F)(F)F)c4)ncn3CC(F)F)nn12` [260′, 6-(1-(2,2-difluoroethyl)-4-(4-fluoro-3-(trifluoromethyl)phenyl)-1H-imidazol-5-yl)imidazo[1,2-b]pyridazine-3-carbonitrile], the IC50 was above 15 µM in experiment [1] and 0.0088 µM in experiment [2].
`CC(C)Oc1ccc(-c2ncn(CC(F)F)c2-c2ccc3ncc(C#N)n3n2)cc1` [263′, 6-(1-(2,2-difluoroethyl)-4-(4-isopropoxyphenyl)-1H-imidazol-5-yl)imidazo[1,2-b]pyridazine-3-carbonitrile]: the IC50 in experiment [1] was above 15 µM; in experiment [2] it was 0.171 µM.
The corresponding values for `CC(C)(O)c1cccc(-c2ncn(CC(F)F)c2-c2ccc3ncc(C#N)n3n2)c1` [265′, 6-(1-(2,2-difluoroethyl)-4-(3-(2-hydroxypropan-2-yl)phenyl)-1H-imidazol-5-yl)imidazo[1,2-b]pyridazine-3-carbonitrile] are above 15 µM and 0.0098 µM.
The corresponding values for `CCOC(=O)c1cnc2ccc(-c3c(-c4ccc(F)cc4)ncn3CC(F)F)cn12` [274C′, ethyl 6-(1-(2,2-difluoroethyl)-4-(4-fluorophenyl)-1H-imidazol-5-yl)imidazo[1,2-a]pyridine-3-carboxylate] are above 15 µM and 0.007 µM.
The corresponding values for `Fc1ccc(-c2ncn(CC(F)F)c2-c2ccc3ncc(CNC4CC(F)(F)C4)n3c2)cc1` [276′, N-((6-(1-(2,2-difluoroethyl)-4-(4-fluorophenyl)-1H-imidazol-5-yl)imidazo[1,2-a]pyridin-3-yl)methyl)-3,3-difluorocyclobutanamine] are above 15 µM and 0.988 µM.
In the case of `NC(=O)CNC(=O)c1cnc2ccc(-c3c(-c4ccc(F)cc4)ncn3CC(F)F)cn12` [280′], the IC50 was above 15 µM in experiment [1] and 0.0032 µM in experiment [2].
With `CC(=O)Nc1nc(-c2ccc(F)cc2)c(-c2ccc3ncc(C#N)n3c2)n1CC(F)F` [297′], the values for the IC50 in experiment [1] and in experiment [2] were above 15 µM and 0.542 µM, respectively.
In the case of `COC(=O)N1CC(n2cnc(-c3ccc(F)cc3)c2-c2ccc3ncc(C#N)n3n2)C1` [Example 190′, methyl 3-(5-(3-cyanoimidazo[1,2-b]pyridazin-6-yl)-4-(4-fluorophenyl)-1H-imidazol-1-yl)azetidine-1-carboxylate], the IC50 in experiment [1] is above 15 µM; in experiment [2] it was 0.0527 µM.
For `CC(=O)N1CC(n2cnc(-c3ccc(F)cc3)c2-c2ccc3ncc(C#N)n3n2)C1` [Example 191′, 6-(1-(1-acetylazetidin-3-yl)-4-(4-fluorophenyl)-1H-imidazol-5-yl)imidazo[1,2-b]pyridazine-3-carbonitrile], the IC50 in experiment [1] was above 15 µM; in experiment [2], 0.0727 µM.
The corresponding values for `N#Cc1cnc2ccc(-c3c(-c4ccc(F)cc4)ncn3C3CN(C(=O)C4CC4)C3)nn12` [Example 192′, 6-(1-(1-(cyclopropanecarbonyl)azetidin-3-yl)-4-(4-fluorophenyl)-1H-imidazol-5-yl)imidazo[1,2-b]pyridazine-3-carbonitrile] are above 15 µM and 0.229 µM.
The corresponding values for `CC(C)(C)NC(=O)N1CC(n2cnc(-c3ccc(F)cc3)c2-c2ccc3ncc(C#N)n3n2)C1` [Example 193′, N-(tert-butyl)-3-(5-(3-cyanoimidazo[1,2-b]pyridazin-6-yl)-4-(4-fluorophenyl)-1H-imidazol-1-yl)azetidine-1-carboxamide] are above 15 µM and 0.227 µM.

The values above are taken from US9884868B2, “TGF-beta inhibitors” (Rigel Pharmaceuticals, Inc., priority 2015, dated 2018).
